# In patent US7220756B2, “N-sulfonylheterocyclopyrrolyl-alkylamine compounds as 5-hydroxytryptamine-6 ligands” (Wyeth, priority 2003, dated 2007):
# Molecular target: T1, human cloned 5-HT6 receptors (Homo sapiens, UniProt P50406)
# T1 construct: expressed in transfected cells; host or cells: HeLa cells
# Assay: 5-HT6 binding affinity, [3H]-LSD displacement
# Conditions: not given
# Protocol: The affinity of test compounds for the serotonin 5-HT6 receptor is evaluated in the following manner. Cultured Hela cells expressing human cloned 5-HT6 receptors are harvested and centrifuged at low speed (1,000×g) for 10.0 min to remove the culture media. The harvested cells are suspended in half volume of fresh physiological phosphate buffered saline solution and recentrifuged at the same speed. This operation is repeated. The collected cells are then homogenized in ten volumes of 50 mM Tris.HCl (pH 7.4) and 0.5 mM EDTA. The homogenate is centrifuged at 40,000×g for 30.0 min and the precipitate is collected. The obtained pellet is resuspended in 10 volumes of Tris.HCl buffer and recentrifuged at the same speed. The final pellet is suspended in a small volume of Tris.HCl buffer and the tissue protein content is determined in aliquots of 10–25 μl volumes. Bovine Serum Albumin is used as the standard in the protein determination according to the method described in Lowry et al., J. Biol. Chem., 193:265 (1951). The volume of the suspended cell membranes is adjusted to give a tissue protein concentration of 1.0 mg/ml of suspension. The prepared membrane suspension (10 times concentrated) is aliquoted in 1.0 ml volumes and stored at −70° C. until used in subsequent binding experiments.
# The reaction is allowed to proceed in the dark for 120 min at room temperature, at which time, the bound ligand-receptor complex is filtered off on a 96 well unifilter with a Packard Filtermate® 196 Harvester. The bound complex caught on the filter disk is allowed to air dry and the radioactivity is measured in a Packard TopCount® equipped with six photomultiplier detectors, after the addition of 40.0 μl Microscint®−20 scintillant to each shallow well. The unifilter plate is heat-sealed and counted in a PackardTopCount® with a tritium efficiency of 31.0%.
# Binding in the presence of varying concentrations of test compound is expressed as a percentage of specific binding in the absence of test compound. The results are plotted as log % bound versus log concentration of test compound. […] A linear regression line of data points is plotted, from which the IC50 value is determined and the Ki value is determined based upon the following equation: Ki=IC50/(1+L/KD) where L is the concentration of the radioactive ligand used and KD is the dissociation constant of the ligand for the receptor, both expressed in nM.
# T1 sequence (P50406 whole entry): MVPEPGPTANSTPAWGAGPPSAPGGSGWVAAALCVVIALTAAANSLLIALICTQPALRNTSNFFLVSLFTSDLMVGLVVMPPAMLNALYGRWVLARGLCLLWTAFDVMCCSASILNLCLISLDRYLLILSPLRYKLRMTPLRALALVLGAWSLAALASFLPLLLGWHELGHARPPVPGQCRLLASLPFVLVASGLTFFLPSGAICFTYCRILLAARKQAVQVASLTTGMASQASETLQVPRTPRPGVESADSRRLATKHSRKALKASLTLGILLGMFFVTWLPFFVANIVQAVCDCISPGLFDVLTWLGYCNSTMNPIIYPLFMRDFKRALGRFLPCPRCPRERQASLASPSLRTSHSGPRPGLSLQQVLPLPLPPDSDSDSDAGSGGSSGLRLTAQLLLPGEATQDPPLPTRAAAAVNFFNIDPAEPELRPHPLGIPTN
row,Compound,Ki
1,"NCCc1cn(S(=O)(=O)c2ccccc2)c2sccc12 [Example 8, 2-[6-(phenylsulfonyl)-6H-thieno[2,3-b]pyrrol-4-yl]ethylamine]",7.5 ± 0.9 nM

# Same assay, conditions: membranes of Hela cells expressing human cloned 5-HT6 receptors; [3H]-LSD 3.0 nM; 120 min, room temperature; read-out: 5-HT6 Binding Ki
row,Ki,Compound
1,17.7 ± 3.2 nM,"NCCc1cn(S(=O)(=O)c2ccc(Br)s2)c2sccc12 [Example 25, 2-{[6-(5-bromothien-2-yl)sulfonyl]-6H-thieno[2,3-b]pyrrol-4-yl}ethylamine]"
2,20 ± 2 nM,NCCc1cn(S(=O)(=O)c2cccs2)c2sccc12 [Example 26]
3,32.7 ± 4.1 nM,"NCCc1cn(S(=O)(=O)c2cc(Cl)c(Cl)s2)c2sccc12 [Example 27, 2-{[6-(4,5-dichlorothien-2-yl)sulfonyl]-6H-thieno[2,3-b]pyrrol-4-yl}ethylamine]"
4,9.2 ± 0.8 nM,"NCCc1cn(S(=O)(=O)c2cccc3ccccc23)c2sccc12 [Example 28, 2-[6-(1-naphthylsulfonyl)-6H-thieno[2,3-b]pyrrol-4-yl]ethylamine]"
5,7.8 ± 0.4 nM,"Cc1cccc(S(=O)(=O)n2cc(CCN)c3ccsc32)c1 [Example 29, 2-{[6-(3-methylphenyl)sulfonyl]-6H-thieno[2,3-b]pyrrol-4-yl}ethylamine]"
6,134 ± 10.3 nM,"Cc1nc(S(=O)(=O)n2cc(CCN)c3ccsc32)cn1C [Example 30, 2-{[6-(1,2-dimethyl-1H-imidazol-4-yl)sulfonyl]-6H-thieno[2,3-b]pyrrol-4-yl}ethylamine]"
7,8.6 ± 0.8 nM,"NCCc1cn(S(=O)(=O)c2cccc3cccnc23)c2sccc12 [Example 31, 2-{[6-(quinolin-8-yl)sulfonyl]-6H-thieno[2,3-b]pyrrol-4-yl}-ethylamine]"
8,21 ± 2.7 nM,"NCCc1cn(S(=O)(=O)c2ccccc2C(F)(F)F)c2sccc12 [Example 32, 2-{{[6-(2-trifluoromethyl)phenyl]sulfonyl}-6H-thieno[2,3-b]pyrrol-4-yl}ethylamine]"
9,24.7 ± 1.7 nM,"COc1ccc(S(=O)(=O)n2cc(CCN)c3ccsc32)cc1 [Example 33, 2-{[6-(4-methoxyphenyl)sulfonyl]-6H-thieno[2,3-b]pyrrol-4-yl}ethylamine]"
10,2.4 ± 0.3 nM,"NCCc1cn(S(=O)(=O)c2ccc(N)cc2)c2sccc12 [Example 35, 2-{[6-(4-aminophenyl)sulfonyl]-6H-thieno[2,3-b]pyrrol-4-yl}ethylamine]"
11,1.2 ± 0.1 nM,"CN(C)CCc1cn(S(=O)(=O)c2ccccc2)c2sccc12 [Example 38, N,N-Dimethyl-2-[6-(phenylsulfonyl)-6H-thieno[2,3-b]pyrrol-4-yl]ethylamine]"
12,2.3 ± 0.5 nM,"CN(C)CCc1cn(S(=O)(=O)c2cccc(C(F)(F)F)c2)c2sccc12 [Example 39, N,N-dimethyl-2-{{[6-(3-trifluoromethyl)phenyl]sulfonyl}-6H-thieno[2,3-b]pyrrol-4-yl}-ethylamine]"
13,0.8 ± 0.1 nM,COc1cccc(S(=O)(=O)n2cc(CCN(C)C)c3ccsc32)c1 [Example 44]
14,20.3 ± 3.4 nM,"Cc1c(S(=O)(=O)n2cc(CCN(C)C)c3ccsc32)sc2ccc(Cl)cc12 [Example 45, N,N-dimethyl-2-{[6-(5-chloro-3-methylbenzo[b]thien-2-yl)sulfonyl]-6H-thieno[2,3-b]pyrrol-4-yl}ethylamine]"
15,1.8 ± 0.1 nM,"CN(C)CCc1cn(S(=O)(=O)c2ccccc2F)c2sccc12 [Example 46, N,N-dimethyl-2-{[6-(2-fluorophenyl)sulfonyl]-6H-thieno[2,3-b]pyrrol-4-yl}ethylamine]"
16,2.1 ± 0.2 nM,"CN(C)CCc1cn(S(=O)(=O)c2cccc(F)c2)c2sccc12 [Example 47, N,N-dimethyl-2-{[6-(3-fluorophenyl)sulfonyl]-6H-thieno[2,3-b]pyrrol-4-yl]-ethylamine]"
17,2.4 ± 0.2 nM,"CN(C)CCc1cn(S(=O)(=O)c2cccs2)c2sccc12 [Example 56, N,N-dimethyl-2-{(6-thien-2-ylsulfonyl)-6H-thieno[2,3-b]pyrrol-4-yl]-ethyllamine]"
18,1.6 nM,"Cc1cccc(S(=O)(=O)n2cc(CCN(C)C)c3ccsc32)c1 [Example 59, N,N-dimethyl-2-{[6-(3-methylphenyl)sulfonyl]-6H-thieno[2,3-b]pyrrol-4-yl}ethylamine]"
19,50 ± 1 nM,"Cc1nc(S(=O)(=O)n2cc(CCN(C)C)c3ccsc32)cn1C [Example 60, N,N-dimethyl-2-{[6-(1,2-dimethyl-1H-imidazol-4-yl)sulfonyl]-6H-thieno[2,3-b]pyrrol-4-yl}ethylamine]"
20,4.7 ± 0.1 nM,"CN(C)CCc1cn(S(=O)(=O)c2ccccc2C(F)(F)F)c2sccc12 [Example 62, N,N-dimethyl-2-{{[6-(2-trifluoromethyl)phenyl]sulfonyl}-6H-thieno[2,3-b]pyrrol-4-yl}ethylamine]"

# Further lines, the compound ahead of its results:
row,Compound,Ki
1,"2-{[4-(2-chlorophenyl)sulfonyl]-4H-thieno[3,2-b]pyrrol-6-yl}ethylamine [Example 69]",2.7 ± 0.2 nM
2,"2-{[4-(3-chlorophenyl)sulfonyl]-4H-thieno[3,2-b]pyrrol-6-yl}ethylamine [Example 65]",2.7 ± 0.1 nM
3,"2-{[6-(2,6-dichloroimidazo[2,1-b][1,3]thiazol-5-yl)sulfonyl]-6H-thieno[2,3-b]pyrrol-4-yl}-ethylamine [Example 21]",21.3 ± 1.5 nM
4,"2-{[6-(2-chloroimidazo[1,2-a]pyrid-3-yl)sulfonyl]-6H-thieno[2,3-b]pyrrol-4-yl}-ethylamine [Example 20]",11.3 ± 0.3 nM
5,"2-{[6-(2-chlorophenyl)sulfonyl]-6H-thieno[2,3-b]pyrrol-4-yl}ethylamine [Example 18]",13 ± 1.5 nM
6,"2-{[6-(3-Chlorophenyl)sulfonyl]-6H-thieno[2,3-b]pyrrol-4-yl}ethylamine [Example 10]",4.3 ± 0.5 nM
7,"2-{[6-(3-chloro-2-methylphenyl)sulfonyl]-6H-thieno[2,3-b]pyrrol-4-yl}ethylamine [Example 34]",13.3 ± 1.5 nM
8,"2-{[6-(4-chlorophenyl)sulfonyl]-6H-thieno[2,3-b]pyrrol-4-yl}ethylamine [Example 22]",13.3 ± 0.7 nM
9,"2-{[6-(5-Chlorothien-2-yl)sulfonyl]-6H-thieno[2,3-b]pyrrol-4-yl}ethylamine [Example 11]",4.9 ± 0.8 nM
10,"2-{[6-(6-Chloroimidazo[2,1-b][1,3]thiazol-5-yl)sulfonyl]-6H-thieno[2,3-b]pyrrol-4-yl}-ethylamine [Example 12]",2.1 ± 0.1 nM
11,"NCCc1cn(S(=O)(=O)c2cccc(C(F)(F)F)c2)c2sccc12 [Example 9, 2-{[6-(3-trifluoromethyl)phenylsulfonyl]-6H-thieno[2,3-b]pyrrol-4-yl}ethylamine]",8.9 ± 0.7 nM
12,"NCCc1cn(S(=O)(=O)c2ccc3ccccc3c2)c2sccc12 [Example 13, 2-[6-(2-naphthylsulfonyl)-6H-thieno[2,3-b]pyrrol-4-yl]ethylamine]",16.7 ± 2.4 nM
13,"COc1cccc(S(=O)(=O)n2cc(CCN)c3ccsc32)c1 [Example 14, 2-{[6-(3-methoxyphenyl)sulfonyl]-6H-thieno[2,3-b]pyrrol-4-yl}ethylamine]",2.3 ± 0.1 nM
14,"Cc1c(S(=O)(=O)n2cc(CCN)c3ccsc32)sc2ccc(Cl)cc12 [Example 15, 2-{[6-(5-chloro-3-methylbenzo[b]thien-2-yl)sulfonyl]-6H-thieno[2,3-b]pyrrol-4-yl}-ethylamine]",102 ± 5.7 nM
15,"NCCc1cn(S(=O)(=O)c2ccccc2F)c2sccc12 [Example 16, 2-{[6-(2-fluorophenyl)sulfonyl]-6H-thieno[2,3-b]pyrrol-4-yl}ethylamine]",12 ± 1.2 nM
16,"NCCc1cn(S(=O)(=O)c2cccc(F)c2)c2sccc12 [Example 17, 2-{[6-(3-fluorophenyl)sulfonyl]-6H-thieno[2,3-b]pyrrol-4-yl}ethylamine]",9.3 ± 0.7 nM
17,"NCCc1cn(S(=O)(=O)c2cnc3sccn23)c2sccc12 [Example 19, 2-{[6-(imidazo[2,1-b][1,3]thiazol-5-yl)sulfonyl]-6H-thieno[2,3-b]pyrrol-4}ethylamine]",3.4 ± 0.6 nM
18,"NCCc1cn(S(=O)(=O)c2cccc(Cl)c2Cl)c2sccc12 [Example 23, 2-{[6-(2,3-dichlorophenyl)sulfonyl)-6H-thieno[2,3-b]pyrrol-4-yl}ethylamine]",7.1 ± 0.2 nM
19,"NCCc1cn(S(=O)(=O)c2cccc(Br)c2)c2sccc12 [Example 24, 2-{[6-(3-bromophenyl)sulfonyl]-6H-thieno[2,3-b]pyrrol-4-yl}ethylamine]",9 ± 0.5 nM
20,"CN(C)CCc1cn(S(=O)(=O)c2cccc3ccccc23)c2sccc12 [Example 58, N,N-dimethyl-2-{[6-(1-naphthyl)sulfonyl]-6H-thieno[2,3-b]pyrrol-4-yl}ethylamine]",3.6 ± 0.1 nM
21,"CN(C)CCc1cn(S(=O)(=O)c2cccc3cccnc23)c2sccc12 [Example 61, N,N-dimethyl-2-{[6-(8-quinolinyl)sulfonyl]-6H-thieno[2,3-b]pyrrol-4-yl}ethylamine]",4.7 ± 0.1 nM
